Molecules are shown by their SMILES. pKi: −log10 of the molar value.

Test [1] deals with isolated recombinant JAK1 kinase domain (Homo sapiens (Human), UniProt P23458). In words: JAK1 enzyme assay (Caliper LabChip, Ki). The format is biochemical. The settings on record: isolated recombinant JAK1 kinase domain, 1.5 nM enzyme, ATP 25 μM.
Test [2] concerns the target isolated recombinant JAK2 kinase domain (Homo sapiens (Human), UniProt O60674). In words: JAK2 enzyme assay (Caliper LabChip, Ki). The format is biochemical. Conditions: isolated recombinant JAK2 kinase domain, 0.2 nM enzyme, ATP 25 μM.

Sequence of isolated recombinant JAK2 kinase domain (O60674 849-1124): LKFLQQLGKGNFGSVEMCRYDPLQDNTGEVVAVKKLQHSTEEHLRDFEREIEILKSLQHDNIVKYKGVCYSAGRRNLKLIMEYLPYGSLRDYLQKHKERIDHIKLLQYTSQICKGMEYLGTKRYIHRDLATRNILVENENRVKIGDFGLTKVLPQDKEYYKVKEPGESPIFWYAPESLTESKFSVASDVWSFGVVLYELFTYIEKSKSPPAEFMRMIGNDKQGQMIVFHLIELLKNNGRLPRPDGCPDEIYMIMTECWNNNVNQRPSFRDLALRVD
Sequence of isolated recombinant JAK1 kinase domain (P23458 875-1153): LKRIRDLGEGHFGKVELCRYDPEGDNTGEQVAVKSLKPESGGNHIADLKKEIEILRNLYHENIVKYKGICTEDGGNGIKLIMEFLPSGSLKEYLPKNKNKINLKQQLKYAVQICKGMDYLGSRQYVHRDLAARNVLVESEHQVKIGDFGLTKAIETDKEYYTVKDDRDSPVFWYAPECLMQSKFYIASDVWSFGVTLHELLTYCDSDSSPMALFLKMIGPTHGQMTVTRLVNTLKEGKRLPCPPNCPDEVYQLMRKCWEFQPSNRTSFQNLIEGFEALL

A word on the pKi: it is −log10 of the Ki, conventionally taken in molar units. As for `CN1CCN(C(=O)Cn2cc(Nc3nc4c(N5CC6CCC(C5)N6Cc5cccc(C#N)c5)cccn4n3)cn2)CC1` [Example 55, 3-[[3-[2-[[1-[2-(4-methylpiperazin-1-yl)-2-oxo-ethyl]pyrazol-4-yl]amino]-[1,2,4]triazolo[1,5-a]pyridin-8-yl]-3,8-diazabicyclo[3.2.1]octan-8-yl]methyl]benzonitrile], the negative logarithm of the Ki (pKi) in test [1] was 8.72; in test [2], 8.40.

With `CN1CCN(C(=O)Cn2cc(Nc3nc4c(N5CC6CCC(C5)N6Cc5ccc(C#N)cc5)cccn4n3)cn2)CC1` [Example 56, 4-[[3-[2-[[1-[2-(4-methylpiperazin-1-yl)-2-oxo-ethyl]pyrazol-4-yl]amino]-[1,2,4]triazolo[1,5-a]pyridin-8-yl]-3,8-diazabicyclo[3.2.1]octan-8-yl]methyl]benzonitrile], the results for the pKi in test [1] and in test [2] were 8.85 and 8.29, respectively.

Regarding `CN1CCN(C(=O)Cn2cc(Nc3nc4c(N5CC6CCC(C5)N6C(=O)C5CCC(F)(F)C5)cccn4n3)cn2)CC1` (stereo not drawn) [Example 58, 2-[4-[[8-[8-(3,3-difluorocyclopentanecarbonyl)-3,8-diazabicyclo[3.2.1]octan-3-yl]-[1,2,4]triazolo[1,5-a]pyridin-2-yl]amino]pyrazol-1-yl]-1-(4-methylpiperazin-1-yl)ethanone], the figures for the pKi in test [1] and in test [2] were 8.80 and 8.60, respectively.

`CCN1CCN(C(=O)Cn2cc(Nc3nc4c(N5CC6CCC(C5)N6C(=O)N5CC(C(F)(F)F)C5)cccn4n3)cn2)CC1` [Example 59, 1-(4-ethylpiperazin-1-yl)-2-[4-[[8-[8-[3-(trifluoromethyl)azetidine-1-carbonyl]-3,8-diazabicyclo[3.2.1]octan-3-yl]-[1,2,4]triazolo[1,5-a]pyridin-2-yl]amino]pyrazol-1-yl]ethanone]: the pKi in test [1] is 9.10; in test [2], 9.30.

`CN1CCN(C(=O)Cn2cc(Nc3nc4c(N5CC6CCC(C5)N6S(=O)(=O)CCC(F)(F)F)cccn4n3)cn2)CC1` [Example 60, 1-(4-methylpiperazin-1-yl)-2-[4-[[8-[8-(3,3,3-trifluoropropylsulfonyl)-3,8-diazabicyclo[3.2.1]octan-3-yl]-[1,2,4]triazolo[1,5-a]pyridin-2-yl]amino]pyrazol-1-yl]ethanone]: the results for the negative-log Ki (pKi) in test [1] and in test [2] were 9.15 and 8.82, respectively.

In the case of `CN1CCN(C(=O)Cn2cc(Nc3nc4c(N5CC6CCC(C5)N6S(=O)(=O)c5ccccc5)cccn4n3)cn2)CC1` [Example 61, 2-[4-[[8-[8-(benzenesulfonyl)-3,8-diazabicyclo[3.2.1]octan-3-yl]-[1,2,4]triazolo[1,5-a]pyridin-2-yl]amino]pyrazol-1-yl]-1-(4-methylpiperazin-1-yl)ethanone], the pKi in test [1] was 9.22; in test [2], 9.00.

For the molecule `CN(C1CCN(C(=O)Cn2cc(Nc3nc4c(N5CC6CCC(C5)N6C(=O)N5CC(C(F)(F)F)C5)cccn4n3)cn2)CC1)C1COC1` [Example 62, 1-[4-[methyl(oxetan-3-yl)amino]piperidin-1-yl]-2-(4-[[8-(8-[[3-(trifluoromethyl)azetidin-1-yl]carbonyl]-3,8-diazabicyclo[3.2.1]octan-3-yl)-[1,2,4]triazolo[1,5-a]pyridin-2-yl]amino]-1H-pyrazol-1-yl)ethan-1-one], the negative logarithm of the Ki (pKi) in test [1] is 9.15; in test [2], 9.30.

With `CN1CCN(C(=O)Cn2cc(Nc3nc4c(N5CC6CCC(C5)N6Cc5ccccc5C#N)cccn4n3)cn2)CC1` [Example 63, 2-[[3-[2-[[1-[2-(4-methylpiperazin-1-yl)-2-oxo-ethyl]pyrazol-4-yl]amino]-[1,2,4]triazolo[1,5-a]pyridin-8-yl]-3,8-diazabicyclo[3.2.1]octan-8-yl]methyl]benzonitrile], the pKi in test [1] is 8.74; in test [2], 8.62.

Turning to `CN1CCN(C(=O)Cn2cc(Nc3nc4c(N5CC6CCC(C5)N6C(=O)Cc5ccccc5F)cccn4n3)cn2)CC1` [Example 64, 2-(2-fluorophenyl)-1-[3-[2-[[1-[2-(4-methylpiperazin-1-yl)-2-oxo-ethyl]pyrazol-4-yl]amino]-[1,2,4]triazolo[1,5-a]pyridin-8-yl]-3,8-diazabicyclo[3.2.1]octan-8-yl]ethanone], the values for the pKi in test [1] and in test [2] were 8.72 and 8.14, respectively.

Take `CN1CCN(C(=O)Cn2cc(Nc3nc4c(N5CC6CCCC(C5)N6C(=O)[C@H]5C[C@@H](C(F)(F)F)C5)cccn4n3)cn2)CC1` [Example 65, 1-(4-methylpiperazin-1-yl)-2-[4-[[8-[9-[3-(trifluoromethyl)cyclobutanecarbonyl]-3,9-diazabicyclo[3.3.1]nonan-3-yl]-[1,2,4]triazolo[1,5-a]pyridin-2-yl]amino]pyrazol-1-yl]ethanone]: the pKi is 9.22 in test [1] and 9.10 in test [2].

Turning to `CN1CCN(C(=O)Cn2cc(Nc3nc4c(N5CC6CCC(C5)N6C(=O)Cc5ccc(F)cc5)cccn4n3)cn2)CC1` [Example 66, 2-(4-fluorophenyl)-1-[3-[2-[[1-[2-(4-methylpiperazin-1-yl)-2-oxo-ethyl]pyrazol-4-yl]amino]-[1,2,4]triazolo[1,5-a]pyridin-8-yl]-3,8-diazabicyclo[3.2.1]octan-8-yl]ethanone], the pKi was 9.15 in test [1] and 8.85 in test [2].

As for `CC(CC(=O)N1C2CCC1CN(c1cccn3nc(Nc4cnn(CC(=O)N5CCN(C)CC5)c4)nc13)C2)C(F)(F)F` (stereo not drawn) [Example 67, 4,4,4-trifluoro-3-methyl-1-[3-[2-[[1-[2-(4-methylpiperazin-1-yl)-2-oxo-ethyl]pyrazol-4-yl]amino]-[1,2,4]triazolo[1,5-a]pyridin-8-yl]-3,8-diazabicyclo[3.2.1]octan-8-yl]butan-1-one], the pKi in test [1] is 9.10; in test [2], 8.85.

On to `CN1CCN(C(=O)Cn2cc(Nc3nc4c(N5CC6CCC(C5)N6C(=O)c5cccc(CC#N)c5)cccn4n3)cn2)CC1` [Example 69, 2-[3-[3-[2-[[1-[2-(4-methylpiperazin-1-yl)-2-oxo-ethyl]pyrazol-4-yl]amino]-[1,2,4]triazolo[1,5-a]pyridin-8-yl]-3,8-diazabicyclo[3.2.1]octane-8-carbonyl]phenyl] acetonitrile], for which the pKi in test [1] was 8.64; in test [2] it was 8.03.

Regarding `CN1CCN(C(=O)Cn2cc(Nc3nc4c(N5CC6CCC(C5)N6C(=O)C(C)(C)CC(F)(F)F)cccn4n3)cn2)CC1` [Example 71, 4,4,4-trifluoro-2,2-dimethyl-1-[3-[2-[[1-[2-(4-methylpiperazin-1-yl)-2-oxo-ethyl]pyrazol-4-yl]amino]-[1,2,4]triazolo[1,5-a]pyridin-8-yl]-3,8-diazabicyclo[3.2.1]octan-8-yl]butan-1-one], the negative-log Ki (pKi) in test [1] and in test [2] was 8.74 throughout.

Regarding `O=C(Cn1cc(Nc2nc3c(N4CC5CCC(C4)N5C(=O)CCC(F)(F)F)cccn3n2)cn1)N1CCC(N2CCOCC2)CC1` [Example 74, 4,4,4-trifluoro-1-[3-[2-[[1-[2-(4-morpholino-1-piperidyl)-2-oxo-ethyl]pyrazol-4-yl]amino]-[1,2,4]triazolo[1,5-a]pyridin-8-yl]-3,8-diazabicyclo[3.2.1]octan-8-yl]butan-1-one], the negative-log Ki (pKi) in test [1] is 9.00; in test [2], 8.57.

Turning to `CN(C)C(=O)CN1CCN(CC2CCN(C(=O)Cn3cc(Nc4nc5c(N6CC7CCC(C6)N7C(=O)CCC(F)(F)F)cccn5n4)cn3)CC2)CC1` [Example 75, N,N-dimethyl-2-[4-[[1-[2-[4-[[8-[8-(4,4,4-trifluorobutanoyl)-3,8-diazabicyclo[3.2.1]octan-3-yl]-[1,2,4]triazolo[1,5-a]pyridin-2-yl]amino]pyrazol-1-yl]acetyl]-4-piperidyl]methyl]piperazin-1-yl]acetamide], the pKi in test [1] was 8.85; in test [2], 8.41.

Take `CN1CCN(C(=O)Cn2cc(Nc3nc4c(N5CC6CCC(C5)N6C(=O)c5cccs5)cccn4n3)cn2)CC1` [Example 76, 1-(4-methylpiperazin-1-yl)-2-[4-[[8-[8-(thiophene-2-carbonyl)-3,8-diazabicyclo[3.2.1]octan-3-yl]-[1,2,4]triazolo[1,5-a]pyridin-2-yl]amino]pyrazol-1-yl]ethanone]: the pKi in test [1] is 9.10; in test [2] it was 8.89.

Regarding `CN1CCN(C(=O)Cn2cc(Nc3nc4c(N5CC6CCC(C5)N6C(=O)CC(C)(C)C(F)(F)F)cccn4n3)cn2)CC1` [Example 77, 4,4,4-trifluoro-3,3-dimethyl-1-[3-[2-[[1-[2-(4-methylpiperazin-1-yl)-2-oxo-ethyl]pyrazol-4-yl]amino]-[1,2,4]triazolo[1,5-a]pyridin-8-yl]-3,8-diazabicyclo[3.2.1]octan-8-yl]butan-1-one], the pKi is 8.77 in test [1] and 8.64 in test [2].

Consider `CN1CCN(C(=O)Cn2cc(Nc3nc4c(N5CC6CCC(C5)N6C(=O)c5cncs5)cccn4n3)cn2)CC1` [Example 78, 1-(4-methylpiperazin-1-yl)-2-[4-[[8-[8-(thiazole-5-carbonyl)-3,8-diazabicyclo[3.2.1]octan-3-yl]-[1,2,4]triazolo[1,5-a]pyridin-2-yl]amino]pyrazol-1-yl]ethanone], for which the negative-log Ki (pKi) was 9.10 in test [1] and 8.89 in test [2].

Consider `COC(=O)N1CCN(CC2CCN(C(=O)Cn3cc(Nc4nc5c(N6CC7CCC(C6)N7C(=O)CCC(F)(F)F)cccn5n4)cn3)CC2)CC1` [Example 79, methyl 4-[[1-[2-[4-[[8-[8-(4,4,4-trifluorobutanoyl)-3,8-diazabicyclo[3.2.1]octan-3-yl]-[1,2,4]triazolo[1,5-a]pyridin-2-yl]amino]pyrazol-1-yl]acetyl]-4-piperidyl]methyl]piperazine-1-carboxylate], for which the values for the pKi in test [1] and in test [2] were 9.10 and 8.80, respectively.

Take `COC(=O)C1C2CCC1CN(c1cccn3nc(Nc4cnn(CC(=O)N5CCN(C)CC5)c4)nc13)C2` (stereo not drawn) [Example 80, methyl 3-[2-[[1-[2-(4-methylpiperazin-1-yl)-2-oxo-ethyl]pyrazol-4-yl]amino]-[1,2,4]triazolo[1,5-a]pyridin-8-yl]-3-azabicyclo[3.2.1]octane-8-carboxylate]: the results for the negative-log Ki (pKi) in test [1] and in test [2] were 8.82 and 8.51, respectively.

The values above are taken from patent US10189836B2, “Therapeutic compounds, compositions and methods of use thereof” (Genentech, Inc., priority 2015, dated 2019).
